# Values of other authors, collected in patent US8057811B2 (Douglas Pharmaceuticals Limited, priority 2003, dated 2011).
structure (smiles),measurement,value
CN1CCN(C2=Nc3cc(Cl)ccc3Nc3ccccc32)CC1 [Clozapine],solubility in water,practically insoluble in water
